Data: US20240217983A1, “GPR119 AGONISTS” (Kallyope, Inc., priority 2021, published 2024)

Molecular target: T1, human GPR119 (hGPR119) (Homo sapiens, UniProt Q8TDV5)
T1 construct: expressed in transfected cells
T1 sequence (Q8TDV5 1-335): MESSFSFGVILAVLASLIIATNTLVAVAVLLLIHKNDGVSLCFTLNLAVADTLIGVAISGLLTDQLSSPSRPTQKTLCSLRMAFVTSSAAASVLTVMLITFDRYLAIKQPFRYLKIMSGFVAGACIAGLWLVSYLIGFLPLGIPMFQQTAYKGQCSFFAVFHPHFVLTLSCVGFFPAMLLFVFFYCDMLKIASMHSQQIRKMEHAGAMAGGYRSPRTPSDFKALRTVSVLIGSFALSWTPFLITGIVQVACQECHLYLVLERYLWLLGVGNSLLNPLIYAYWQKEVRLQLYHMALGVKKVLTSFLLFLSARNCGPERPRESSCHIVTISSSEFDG
Assay: cAMP accumulation assay (Cisbio cAMP Gs dynamic HTRF kit) in CHO-K1 cells stably expressing human GPR119
Assay type: cell-based
Conditions: 4-parameter fit; for Emax: 1 h, % activity normalized to Max and Min controls; for EC50: 60 minutes at 37° C.
In short: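 Read-out is HTRF 665/620 nm ratio after 1 h detection at ambient temperature, converted to % activity against positive and negative controls, EC50 and Max activity by 4-parameter fit. Compounds were titrated onto ~10,000 thawed hGPR119-CHO-K1 cells/well for 60 min at 37° C/5% CO2.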

Emax [%] | EC50 [nM] | SMILES
≥ 130 | ≤ 100 | O=C(Cc1ccc(OCCCC2CCN(c3ncc(Cl)cn3)CC2)cc1F)N1C[C@@H]2CCN(C(=O)CCCCS(=O)(=O)O)[C@@H]2C1 [Example 6, 5-((3aS,6aS)-5-(2-(4-(3-(1-(5-chloropyrimidin-2-yl)piperidin-4-yl)propoxy)-2-fluorophenyl)acetyl)hexahydropyrrolo[3,4-b]pyrrol-1(2H)-yl)-5-oxopentane-1-sulfonic acid]
≥ 130 | ≤ 100 | O=C(Cc1ccc(OCCCC2CCN(c3ncc(Cl)cn3)CC2)cc1F)N1CC[C@]2(CCC2NCC(O)C(O)C(O)CO)C1 (stereo in doubt) [Example 84, 2-(4-(3-(1-(5-chloropyrimidin-2-yl)piperidin-4-yl)propoxy)-2-fluorophenyl)-1-(1-(((2S,3S,4R)-2,3,4,5-tetrahydroxypentyl)amino)-6-azaspiro[3.4]octan-6-yl)ethan-1-one]
100 to 130 | ≤ 100 | O=C(CCCCS(=O)(=O)O)N1CCN(C(=O)Cc2ccc(OCCCC3CCN(c4ncc(Cl)cn4)CC3)cc2F)CC1 [Example 23, 5-(4-(2-(4-(3-(1-(5-chloropyrimidin-2-yl)piperidin-4-yl)propoxy)-2-fluorophenyl)acetyl)piperazin-1-yl)-5-oxopentane-1-sulfonic acid]
100 to 130 | ≤ 100 | O=C(Cc1ccc(OCCCC2CCN(c3ncc(Cl)cn3)CC2)cc1F)N1CCC2(CN(C[C@H](O)[C@@H](O)[C@H](O)[C@H](O)CO)C2)C1 [Example 29, 2-(4-(3-(1-(5-chloropyrimidin-2-yl)piperidin-4-yl)propoxy)-2-fluorophenyl)-1-(2-((2S,3R,4R,5R)-2,3,4,5,6-pentahydroxyhexyl)-2,6-diazaspiro[3.4]octan-6-yl)ethan-1-one]
≥ 130 | ≤ 100 | O=C(Cc1ccc(OCCCC2CCN(c3ncc(Cl)cn3)CC2)cc1F)N1CC2(CCC2NC[C@H](O)[C@H](O)[C@H](O)CO)C1 (stereo partly drawn) [Example 78, 2-(4-(3-(1-(5-chloropyrimidin-2-yl)piperidin-4-yl)propoxy)-2-fluorophenyl)-1-(5-(((2S,3S,4R)-2,3,4,5-tetrahydroxypentyl)amino)-2-azaspiro[3.3]heptan-2-yl)ethan-1-one]
100 to 130 | ≤ 100 | O=C(Cc1ccc(OCCCC2CCN(c3ncc(Cl)cn3)CC2)cc1F)N1CC2(CCCN2C(=O)CCCCS(=O)(=O)O)C1 [Example 18, 5-(2-(2-(4-(3-(1-(5-chloropyrimidin-2-yl)piperidin-4-yl)propoxy)-2-fluorophenyl)acetyl)-2,5-diazaspiro[3.4]octan-5-yl)-5-oxopentane-1-sulfonic acid]
50 to 100 | > 10000 | COCc1cnc(N2CCC(CCOCc3ccc(CC(=O)N4CCN(C[C@H](O)[C@@H](O)[C@H](O)[C@H](O)CO)CC4)c(F)c3)CC2)nc1 [Example 103, 2-(2-fluoro-4-((2-(1-(5-(methoxymethyl)pyrimidin-2-yl)piperidin-4-yl)ethoxy)methyl)phenyl)-1-(4-((2S,3R,4R,5R)-2,3,4,5,6-pentahydroxyhexyl)piperazin-1-yl)ethan-1-one]
100 to 130 | 100 to 1000 | O=C(Cc1c(F)cc(OCCCC2CCN(C(=O)OC3(C(F)(F)F)COC3)CC2)cc1F)N1CCN(C[C@H](O)[C@@H](O)[C@H](O)[C@H](O)CO)CC1 [Example 106, 3-(trifluoromethyl)oxetan-3-yl 4-(3-(3,5-difluoro-4-(2-oxo-2-(4-((2S,3R,4R,5R)-2,3,4,5,6-pentahydroxyhexyl)piperazin-1-yl)ethyl)phenoxy)propyl)piperidine-1-carboxylate]
100 to 130 | 100 to 1000 | CC(C)OC(=O)N1CCC(CCCOc2ccc(CC(=O)N3CCN(C[C@H](O)[C@@H](O)[C@H](O)[C@H](O)CO)CC3)c(F)c2)CC1 [Example 104, isopropyl 4-(3-(3-fluoro-4-(2-oxo-2-(4-((2S,3R,4R,5R)-2,3,4,5,6-pentahydroxyhexyl)piperazin-1-yl)ethyl)phenoxy)propyl)piperidine-1-carboxylate]
100 to 130 | ≤ 100 | O=C(Cc1ccc(OCCCC2CCN(c3ncc(Cl)cn3)CC2)cc1F)N1CCC2(CC1)CCN2C[C@H](O)[C@H](O)[C@H](O)CO [Example 67, 2-(4-(3-(1-(5-chloropyrimidin-2-yl)piperidin-4-yl)propoxy)-2-fluorophenyl)-1-(1-((2S,3S,4R)-2,3,4,5-tetrahydroxypentyl)-1,7-diazaspiro[3.5]nonan-7-yl)ethan-1-one]
100 to 130 | ≤ 100 | O=C(CCCCS(=O)(=O)O)N1CC2(C1)CN(C(=O)Cc1ccc(OCCCC3CCN(c4ncc(Cl)cn4)CC3)cc1F)C2 [Example 3, 5-(6-(2-(4-(3-(1-(5-chloropyrimidin-2-yl)piperidin-4-yl)propoxy)-2-fluorophenyl)acetyl)-2,6-diazaspiro[3.3]heptan-2-yl)-5-oxopentane-1-sulfonic acid]
100 to 130 | ≤ 100 | O=C(CCCCS(=O)(=O)O)N1C[C@H]2C[C@@H]1CN2C(=O)Cc1ccc(OCCCC2CCN(c3ncc(Cl)cn3)CC2)cc1F [Example 11, 5-((1R,4R)-5-(2-(4-(3-(1-(5-chloropyrimidin-2-yl)piperidin-4-yl)propoxy)-2-fluorophenyl)acetyl)-2,5-diazabicyclo[2.2.1]heptan-2-yl)-5-oxopentane-1-sulfonic acid]
≥ 130 | ≤ 100 | O=C(Cc1ccc(OCCCC2CCN(c3ncc(Cl)cn3)CC2)cc1F)N1CCC2(CCCN2C[C@H](O)[C@H](O)[C@H](O)CO)C1 (stereo partly drawn) [Example 74, 2-(4-(3-(1-(5-chloropyrimidin-2-yl)piperidin-4-yl)propoxy)-2-fluorophenyl)-1-(1-((2S,3S,4R)-2,3,4,5-tetrahydroxypentyl)-1,7-diazaspiro[4.4]nonan-7-yl)ethan-1-one]
100 to 130 | 100 to 1000 | O=C(Cc1ncc(OCCCC2CCN(c3ncc(Cl)cn3)CC2)cc1F)N1CCN(C[C@H](O)[C@@H](O)[C@H](O)[C@H](O)CO)CC1 [Example 89, 2-(5-(3-(1-(5-chloropyrimidin-2-yl)piperidin-4-yl)propoxy)-3-fluoropyridin-2-yl)-1-(4-((2S,3R,4R,5R)-2,3,4,5,6-pentahydroxyhexyl)piperazin-1-yl)ethan-1-one]
100 to 130 | 100 to 1000 | O=C(CCCCS(=O)(=O)O)N1CCN(C(=O)Cc2ccc(OCCCC3CCN(c4ncc(Cl)cn4)CC3)cc2F)C2CC21 (stereo not shown) [Example 17, 5-(5-(2-(4-(3-(1-(5-chloropyrimidin-2-yl)piperidin-4-yl)propoxy)-2-fluorophenyl)acetyl)-2,5-diazabicyclo[4.1.0]heptan-2-yl)-5-oxopentane-1-sulfonic acid]
100 to 130 | ≤ 100 | O=C(Cc1ccc(OCCCC2CCN(c3ncc(Cl)cn3)CC2)cc1F)N1CC2(CCN(C[C@H](O)[C@H](O)[C@H](O)CO)C2)C1 [Example 66, 2-(4-(3-(1-(5-chloropyrimidin-2-yl)piperidin-4-yl)propoxy)-2-fluorophenyl)-1-(6-((2S,3S,4R)-2,3,4,5-tetrahydroxypentyl)-2,6-diazaspiro[3.4]octan-2-yl)ethan-1-one]

SMILES | Emax [%] | EC50 [nM]
O=C(Cc1c(F)cc(OCCCCC2CCN(c3ncc(Cl)cn3)CC2)cc1F)N1CCN(C[C@H](O)[C@@H](O)[C@H](O)[C@H](O)CO)CC1 [Example 87, 2-(4-(4-(1-(5-chloropyrimidin-2-yl)piperidin-4-yl)butoxy)-2,6-difluorophenyl)-1-(4-((2S,3R,4R,5R)-2,3,4,5,6-pentahydroxyhexyl)piperazin-1-yl)ethan-1-one] | ≥ 130 | ≤ 100
